{"source": "patent US8809325B2", "about": "“Benzyl-oxathiazine derivatives substituted with adamantane and noradamantane, medicaments containing said compounds and use thereof” (SANOFI, priority 2011, dated 2014)", "target": "human 11β-HSD1 microsome fraction (Homo sapiens, UniProt P28845)", "sequence (P28845 whole entry)": "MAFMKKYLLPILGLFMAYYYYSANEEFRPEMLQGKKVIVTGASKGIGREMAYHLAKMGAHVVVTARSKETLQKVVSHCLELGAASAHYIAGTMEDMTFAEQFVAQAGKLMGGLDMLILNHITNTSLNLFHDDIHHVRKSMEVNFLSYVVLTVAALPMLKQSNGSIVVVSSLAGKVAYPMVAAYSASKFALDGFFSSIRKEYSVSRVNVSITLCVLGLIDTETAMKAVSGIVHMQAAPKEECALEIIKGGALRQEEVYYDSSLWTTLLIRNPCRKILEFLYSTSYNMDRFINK", "test": "Enzymatic 11beta-HSD1 test (SPA-based detection)", "format": "biochemical", "conditions": "human 11β-HSD1 microsomes, [1,2-3H]-cortisone, NADPH, 37° C., 1 hour", "method": "Enzymatic 11beta-HSD1 Test:\nTo measure the activity of the compounds, an SPA-based detection method (Solly et al. 2005) was employed. First of all, 20 μl of the human 11β-HSD1 microsome fraction (0.2 μg of protein), prepared in 50 mM HEPES, 0.1% BSA (w/v), were applied to a plate with 384 wells. The test compounds (0.09 μl) were applied to the assay plate in 100% DMSO. The reaction was started by addition of 20 μl of [1,2-^3H]-cortisone (0.1 μCi/[…]) in assay buffer comprising 25 mM HEPES, 100 mM KCl, 5 mM NaCl, 2 mM MgCl2 and 0.25 mM NADPH. The plate was agitated at 37° C. for 1 hour. At the same time, a stop solution comprising 20 mg/ml SPA-PVT beads, 1.6 mg/ml monoclonal cortisol antibody and 0.01 mM SSR110887 (inhibitor from the Biovitrium patent) in 50 mM HEPES, 1 M NaCl and 1 M KCl was stirred at room temperature. To stop the reaction, 25 μl of the stop solution were added to each well. The plate was agitated gently at room temperature for 1 further hour and then centrifuged at 500 gav for 1 minute, in order that the SPA beads could settle out. The plate was then read in a Wallac-1450-Microbeta unit with a standard SPA program (counting time 1 min/well). The comparative compound was glycyrrhetinic acid.\nProtein and radioactive substrate were dispensed with a Biomek FX unit (Beckman Coulter) for handling liquids. […]"}
{"smiles": "CCN1CC(c2ccc(C[C@@H]3C(C)(C)OC(NC45C[C@@H]6C[C@@H](C[C@H]4C6)C5)=NS3(=O)=O)c(F)c2)C1", "note": "[Example 6, {(R)-5-[4-(1-Ethyl-azetidin-3-yl)-2-fluoro-benzyl]-6,6-dimethyl-4,4-dioxo-5,6-dihydro-4H-4lambda6-[1,4,3]oxathiazin-2-yl}-(2R,3aS,5S,6aS)-hexahydro-2,5-methano-pentalen-3a-yl-amine]", "values": [{"measurement": "IC50", "value": 3, "unit": "nM"}]}
